The source of these data is US20080221074A1, “Drug Screen and Treatment Method” (priority 2006, published 2008).

Where two headings read alike, the source gives them in different places.

In one assay the test system is NF-κB. Put plainly: inhibition of NF-κB activation in NF-κB-bla THP-1 cells after LPS stimulation. Type of assay: cell-based, human. An excerpt:
Inhibition of NF-κB in vitro. […] Activation of NF-κB increases expression of a number of genes that mediate inflammation. This protocol used human THP-1 cells, which are human mononuclear blood cells with a monocyte phenotype. The cell line, referred to as NF-κB-bla THP-1, contained a β-lactamase reporter gene under the control of the NF-kB response element (Invitrogen, CellSensor™, product No. K1176). In this cell line, the β-lactamase reporter gene is stably integrated in the THP-1 cells. This cell line was used to detect agonists or antagonists of the NF-κB signaling pathway. These NF-κB-bla THP-1 cells respond to the presence of tumor necrosis factor alpha (TNFα) or bacterial lipopolysaccharide (LPS) by increased expression of the β-lactamase reporter gene. The level of β-lactamase enzyme activity was measured by fluorescence resonance energy transfer ratiometric detection. TNFα and LPS are both potent inflammation-inducing agents that activate NF-κB in THP1 cells. In this assay, compounds that decrease NF-κB activity, and thus β-lactamase, in the presence of TNFα or LPS are exerting an anti-inflammation activity.
The NF-κB-bla THP-1 cells were maintained by passaging or feeding as needed. […] The cells were plated at 20,000 cells/well in a 384-well Black-wall, clear bottom assay plates (Costar#3712-TC low fluorescence background plates) approximately 24 hours before adding either TNFα at 10 ng/mL or LPS at 0.2 ng/mL to activate NF-κB.
The assays were usually conducted 2-4 times for each compound and the values shown below are averages for each compound.

Assay [1] deals with carrageenan-λ induced pleurisy. Description: carrageenan-λ induced lung (pleural cavity) inflammation. To be noted: exudate 4 h after. The format is in vivo, CD1 male mice. The source says:
Treatment of lung inflammation. Three compounds, 3β,16α-dihydroxy-17-oxoandrostane, 3α,16β,17β-trihydroxyandrostane and 3α,16α,17α-trihydroxyandrostane were used to treat inflammation in mice essentially as described (D. Auci et al., Ann. New York Acad. Sci. 1051:730-742 2005). Five to 8 week old CD1 male mice (Charles River, Calco, Italy) were used for the study. The animals were housed in a controlled environment and provided with standard rodent chow and water. Animal care was in compliance with applicable regulations on protection of animals. Mice were allocated into one of the following groups: (1) mice treated with 2% carrageenan-k in saline (carrageenan-λ treated control group), (2) mice treated with 0.1 mg, 0.01 mg or 0.001 mg 3β,16α-dihydroxy-17-oxoandrostane by subcutaneous (s.c.) injection 24 h and 1 h before carrageenan-λ administration, (3) mice treated with 0.1 mg, 0.01 mg or 0.001 mg of 3α,16α,17α-trihydroxyandrostane by s.c. injection 24 and 1 h before carrageenan; (4) mice treated with 0.1 mg, 0.01 mg or 0.001 mg […],16β,17β-trihydroxyandrostane by s.c. injection 24 h and 1 h before carrageenan-λ administration; (5) mice treated with vehicle (0.1% carboxymethylcellulose, 0.9% saline, 2% tween 80, 0.05% phenol) s.c. 24 h and 1 h before carrageenan-λ administration; (6) mice treated with rabbit anti-mouse polyclonal anti-TNF-α antibody (200 μg) given as an intraperitoneal bolus 24 h and 1 h before carrageenan-λ administration (positive control group); and (7) sham-operated mice that were not treated with carrageenan-λ. Each group consisted of 10 mice. All treatments were given in a final volume of 100 μL. Lung (pleural cavity) inflammation was induced as follows. The mice were anaesthetised with isoflurane and a skin incision was made at the level of the left sixth intercostal space. The underlying muscle was dissected and either 0.1 mL saline (control) or 0.1 mL saline containing 2% λ-carrageenan was injected into the pleural cavity. The carrageenan-λ is a potent inducer of inflammation, which is manifested in this protocol by accumulation of fluid and neutrophils in the pleural cavity. The incision was closed with a suture and the animals were allowed to recover.
At 4 h after the injection of carrageenan-λ, the animals were euthanized by exposure to CO2. The chest was carefully opened and the pleural cavity rinsed with 1 mL of saline solution containing heparin (5 U/mL) and indomethacin (10 μg/mL). The exudate and washing solution were removed by aspiration and the total volume measured. Any exudate contaminated with blood was discarded. The amount of exudate was calculated by subtracting the injected 1 mL volume from the total pleural cavity volume that was recovered. The neutrophils in the exudate were suspended in phosphate-buffer saline and counted with an optical microscope in a Burker's chamber after Trypan Blue staining. The results were analysed by one-way ANOVA followed by a Bonferroni post-hoc test for multiple comparisons. A p-value less than 0.05 was considered significant. For statistical analysis each group was compared to the control group of mice that were challenged with carrageenan-k and received no other treatment.
The table below describes the number of neutrophils from the treated animal groups relative to untreated control animals that were exposed to carrageenan-λ, but not treated with anything else (negative control group). The neutrophil number for the negative control group was set at 100% and other groups were compared to this.

Assay [2] deals with human MG-63 osteosarcoma cell line. Description: reversal of dexamethasone effects in MG-63 osteoblasts. Type of assay: cell-based. Conditions: for reversal of the decrease in osteoprotegerin synthesis: 30 nM dexamethasone, compound concentration stated with each value (17α-ethynyl triol: 1 nM).
The test system of the next assay is EAE. Put plainly: PLP-induced EAE, treatment from clinical onset. Conditions: for course of EAE compared to vehicle-treated mice / mean cumulative score, treatment period: 0.1 mg q.d. po from clinical onset; for mean cumulative score, treatment period: day 1 to 30; for mean cumulative score, follow-up period: day 31 to day 54, post treatment. Type of assay: in vivo, female SJL mice. As for the experimental part:
The protocol for conducting the EAE animal model was described in (D. Auci et. al., Ann. NY. Acad. Sci. USA, 1051:730-42, 2005). Female SJL mice (6-8 week old, average body weight of 25 g) obtained from Charles-River were kept under standard laboratory conditions (non specific pathogen germ free) with ad libitum food and water and were allowed to adapt one week to their environment before commencing the study. […] EAA was induced with 200 μL of a 1:1 emulsion of 75 μg proteolipid protein (PLP) and 6 mg/mL Mycobacterium tuberculosis H37RA in complete Freund's adjuvant (CFA). The 200 μL injection was divided among four sites that drained into the auxiliary and inguinal lymphnodes. Pertussis toxin was used as a co-adjuvant and was administered i.p. at 200 ng/mouse on day zero and day two post immunization. Groups were treated with 0.1 mg of compound in 100 μL vehicle, or with vehicle alone, q.d. po (oral gavage) starting at clinical onset of disease and continuing through to day 30 post immunization. […] Clinical grading was carried out by an observer unaware of the treatment: 0=no illness, 1=flaccid tail, 2=moderate paraparesis, 3=severe paraparesis, 4=moribund state, 5=death.

[3] abbreviates: LPS stimulation, 50% of the compound's maximum inhibition, averages, read-out: IC50.

The term IC50 denotes the concentration needed to halve the response being measured. As for 3α,17α-ethynylandrostane-3α/β,17β-diol, in the assay with NF-κB (setting [3]), the IC50 came out at 0.2 nM.

In the case of `C[C@]12CC[C@H]3[C@@H](CCC4C[C@H](O)CC[C@@]43C)[C@@H]1C[C@H](O)[C@@H]2O` (stereo partly drawn) [3α,16β,17β-trihydroxyandrostane], the “number of neutrophils relative to negative control group (set at 100%)” value in assay [1] (0.001 mg s.c. 24 h and 1 h before carrageenan-λ) is reported as 95%; in assay [1] (0.01 mg s.c. 24 h and 1 h before carrageenan-λ), 50%; in assay [1] (0.1 mg s.c. 24 h and 1 h before carrageenan-λ), 42%.

For the molecule `C[C@]12CC[C@H]3[C@@H](CCC4=C[C@H](O)CC[C@@]43C)[C@@H]1CC[C@@H]2O` [3α,17β-dihydroxyandrost-4-ene], in assay [2] (similar protocols), the “dexamethasone induced 11β-HSD mRNA” value is on record as “decrease”; the “dexamethasone-induced suppression of IL-8 and IL-6” value is “statistically significant reversal”.

As for `C[C@]12CC[C@H]3[C@@H](CC=C4C[C@](O)(C(F)(F)C(F)(F)F)CC[C@@]43C)[C@@H]1CC[C@@H]2O` [3α-pentafluoroethylandrost-5-ene-3β,17β-diol], the “maximum inhibition of NF-κB” value in the assay on NF-κB is 50%.

Take `C[C@]12CC[C@H]3[C@@H](CC=C4C[C@](O)(C(F)(F)F)CC[C@@]43C)[C@@H]1CC[C@@H]2O` [3α-trifluoromethylandrost-5-ene-3β,17β-diol]: in the assay on EAE, the “course of EAE compared to vehicle-treated mice” value is given as “significantly improved course of EAE”; the “mean cumulative score, treatment period” value worked out at 11.2±4.8; the “mean cumulative score, follow-up period” value is listed as 10.8±10.3.

For `C[C@]12CC[C@H](O)CC1=C[C@H](O)[C@@H]1[C@@H]2CC[C@@]2(C)[C@H]1CC[C@]2(C)O` [3β,7β,17β-trihydroxy-17α-methylandrost-5-ene], in assay [2], the “reversal of the decrease in osteoprotegerin synthesis” value (from here on “reversal of the decrease”) was “normal osteoprotegerin levels at 10 nM”.

Regarding `CC12CCC(O)CC1=CC(O)C1C2CCC2(C)C1CCC2(O)C(F)(F)F` (stereo not drawn) [3β,7β,17β-trihydroxy-17α-trifluoromethylandrost-5-ene], the “reversal of the decrease” value in assay [2] is “normal or basal osteoprotegerin levels at 1 μM compound”.

In the case of `CC12CCC(O)CC1=CC(=O)C1C2CCC2(C)C1CCC2(C)O` (stereo not drawn) [3β,17β-dihydroxy-7-oxo-17α-methylandrost-5-ene], the “reversal of the decrease” value in assay [2] is reported as “increased osteoprotegerin levels at 100 nM”.

Turning to `C[C@]12CC[C@H](O)C[C@@H]1CC[C@@H]1[C@@H]2CC[C@]2(C)[C@@H](O)C(=NO)C[C@@H]12` [5α-androstane-3β,17β-diol-16-oxime], in the assay with EAE, the “course of EAE compared to vehicle-treated mice” value is recorded as “very similar to that observed in the vehicle-treated mice”.

As for `C[C@]12CCCCC1=CC[C@@H]1[C@@H]2CC[C@]2(C)C(=O)[C@H](F)C[C@@H]12` [16α-fluoroandrost-5-ene-17-one], the IC50 with NF-κB (Homo sapiens, THP-1) was 0.03 nM.

With `C[C@]12CC[C@H](O)C[C@@H]1CC[C@@H]1[C@@H]2CC[C@]2(C)C(=O)[C@H](I)C[C@@H]12` [16α-iodoepiandrosterone], in the assay on NF-κB (setting [3]), the IC50 came out at 1.9 nM.

For the molecule `C[C@]12CC[C@H](O)C[C@@H]1CC[C@@H]1[C@@H]2CC[C@]2(C)C(=O)[C@@H](Br)C[C@@H]12` [16β-bromoepiandrosterone], in the assay with NF-κB, the “maximum inhibition of NF-κB” value was 100%. Besides, in the assay on NF-κB (setting [3]), the IC50 was 600 nM.

Take `C#C[C@]1(O)CC[C@H]2[C@@H]3CCC4=CC(=O)CC[C@]4(C)[C@H]3CC[C@@]21C` [17α-ethynylandrost-4-ene-3-one-17β-ol]: in the assay on NF-κB, the “maximum inhibition of NF-κB” value was determined as 80%.

For `C[C@]12CC[C@H](O)CC1=CC[C@@H]1[C@@H]2CC[C@@]2(C)[C@H]1CC[C@@]2(O)C(F)(F)F` [17α-trifluoromethylandrost-5-ene-3β,17β-diol], the “course of EAE compared to vehicle-treated mice” value in the assay with EAE is “significantly improved course of EAE”.

Regarding `C#C[C@@]1(O)CC[C@H]2[C@@H]3[C@@H](O)C=C4C[C@@H](O)CC[C@]4(C)[C@H]3CC[C@@]21C` [17β-ethynylandrost-5-ene-3β,7β,17α-triol], in the assay on EAE, the “mean cumulative score, treatment period” value is recorded as 14.9±17.6 and the “mean cumulative score, follow-up period” value came out at 18.4±20.6. The same molecule gave an EAE incidence in the assay on EAE (end of the follow-up period) of 85.7%. In the assay on EAE (end of the treatment period), the EAE incidence stood at 57.1%.

In the case of `Cc1cc(C)c(/C=C2\C(=O)Nc3ccccc32)[nH]1` [SU5416, Z-3-[(2,4-dimethylpyrrol-5-yl)methylidenyl]-2-indolinone, reference compound], the “course of EAE compared to vehicle-treated mice” value in the assay with EAE is “very similar to that observed in the vehicle-treated mice”.

With `C[C@]12CC[C@H]3[C@@H]([C@H](O)C=C4C[C@@H](O)CC[C@@]43C)[C@@H]1C[C@@H](O)[C@@H]2O` [androst-5-ene-3β,7α,16α,17β-tetrol], in assay [2], the “reversal of the decrease” value is on record as “near normal osteoprotegerin levels at 10 nM”.

On to `C[C@]12CC[C@H]3[C@@H](C(=NO)C=C4C[C@@H](O)CC[C@@]43C)[C@@H]1CC[C@@H]2O` [androst-5-ene-3β,17β-diol-7-oxime], for which the “reversal of the decrease” value in assay [2] was “partially reversed the decrease in osteoprotegerin”.
